Assay results as given in US20160376240A1, “6 Phenyl or 6 Pyridin 3 YL Indazole Derivatives and Methods of Use” (ABBVIE INC., priority 2014, published 2016).

Key:
TrkA = target: T1, TrkA (Homo sapiens, UniProt P04629); assay: TrkA kinase inhibition, HTRF assay; assay type: biochemical; details: LCK peptide substrate 125 nM, TrkA 2-10 nM pre-incubated with ATP 200 μM
T1 construct: purchased Invitrogen PV3144
Summary of the method: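 TrkA (2-10 nM) preactivated 20 min with 200 μM ATP in HEPES pH 7.4 with Mg2+/Mn2+, then compound for 10 min, then 125 nM biotinylated LCK-peptide for 1 h at ambient temperature. HTRF 665/620 ratio read; IC50 fitted from initial-rate percent inhibition.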

[1] = system: rat model of mono-iodoacetic acid induced osteoarthritis pain; assay: Osteoarthritis pain model, hind limb grip force in MIA-treated rats; assay type: in vivo; details: mean percent effect, ***p<0.001 vs vehicle-treated animals
Method: Members of the TrkA inhibitors described above were tested and found effective in reducing osteoarthritis pain. The compounds tested were assessed in an in vivo model well known to those skilled in the art, the rat model of mono-iodoacetic acid induced osteoarthritis pain. A general review of various models of pain can be found in Joshi and Honore, Expert Opinion in Drug Discovery (2004) 1, pp. 323-334, and in the book ‘Drug Discovery and Evaluation, 2nd edition (H. Gerhard Vogel, editor; Springer-Verlag, New York, 2002; pp. 702-706).
Pain behavior was assessed by measurement of hind limb grip force (GF) in adult osteoarthritic rats. Male Sprague Dawley rats, generally weighing 125-150 g, were injected in the unilateral knee join with a single intra-articular injection of sodium monoiodoacetate (MIA). Rats were tested at 21-28 days following MIA injection. A behavioral measure of activity-induced pain was carried out. Measurements of the peak hind limb grip force were conducted by recording the maximum compressive force (CFmax), in grams of force, exerted on a hind limb strain gauge setup, in a commercially available grip force measurement system (Columbus Instruments, Columbus, Ohio).
During testing, each rat was gently restrained by grasping it around its rib cage and then allowed to grasp the wire mesh frame attached to the strain gauge. The experimenter then moved the animal in a rostral-to-caudal direction until the grip was broken. Each rat was sequentially tested twice at an approximately 2-3 minute interval to obtain a raw mean grip force (CFmax). This raw mean grip force data was in turn converted to a maximum hindlimb cumulative compressive force (CFmax), as the grams of force/kg of body weight, for each animal.
For evaluating the compound effects, the hind limb grip force testing in the MIA-treated rats was conducted generally 30-60 minutes after dosing with the test compound. A group of age-matched nave (not injected with MIA) animals was added as a comparator to the drug-dosed groups. The vehicle control response for each group of MIA-treated animals was defined as the 0% response (0% effect), whereas the nave control group was defined as the normal response and as 100% effect. The % effect=(Treatment CFmax−Vehicle CFmax)/Vehicle CFmax]×100). Higher % effect numbers indicate increased relief from the pain in the model, with 100% indicating a return to the level of response seen in normal (non-osteoarthritic) animals. All experiments evaluating drug effects in this model were conducted in a randomized blinded fashion.
Male Sprague Dawley rats (generally 250-300 g body weight at the time of testing) obtained from Charles River Laboratories (Wilmington, Mass.) were used for all experiments, unless indicated otherwise. […]

TrkB = target: T2, TrkB (Homo sapiens, UniProt Q16620); assay: TrkB kinase inhibition, HTRF assay; assay type: biochemical; details: LCK peptide substrate, assay ATP concentration targeted 5 μM
T2 construct: purchased Invitrogen PV3616
Method: (§1) TrkA, TrkB, and TrkC enzymes were obtained from Invitrogen (as catalog numbers PV3144, PV3616, and PV3617, respectively). The ability of a compound to inhibit the enzymatic activity of the TrkA, TrkB, and TrkC enzymes was determined in separate assays. Enzyme activity was measured in an HTRF® (homogeneous time resolved fluorescence) assay, which detects enzymatic phosphorylation of a biotinylated synthetic peptide substrate (an LCK peptide analog, biotin-ahx-GAEEEIYAAFFA, from Genemed Synthesis). Phosphorylation is assessed by HTRF® in the presence of an anti-phosphotyrosine antibody conjugated to Eu^3+ cryptate (Cisbio) as donor fluorophore, and streptavidin conjugated to allophycocyanin (ProZyme) as acceptor fluorophore. The HTRF® signal was detected at two different wavelengths (620 nm and 665 nm) which were used to calculate the fluorescence ratio.
(§2) Each enzyme was titrated to a concentration optimized to ensure accurate measurement of the initial reaction rate. To allow the Trk enzymes to undergo activation and auto-phosphorylation, a 20 minute pre-incubation with ATP was carried out (at twice the final targeted enzyme and ATP concentration) prior to addition of test compound and the peptide substrate.
(§3) TrkA in vitro assays were performed by pre-incubating TrkA (2-10 nM) with ATP (200 μM) for 20 minutes at ambient temperature in 50 mM HEPES pH 7.4, 10 mM MgCl2, 2 mM MnCl2, 100 μM Na3VO4, 1 mM dithiothreitol, 0.01% BSA (bovine serum albumin). Then, to the activated Trk enzyme mixture was added the test compound in 2% dimethyl sulfoxide. After 10 minutes, the peptide substrate (125 nM) was added. After 1 hour, enzyme reactions were terminated by addition of equal reaction volumes of detection/stop reagent (containing 0.2 μg/mL anti-phosphotyrosine monoclonal antibody labeled with europium from Cisbio (catalog# PT66-K), and 4 μg/mL PhycoLink® Streptavidin-Allophycocyanin conjugate from ProZyme (catalog# PJ25S) in 60 mM EDTA in 40 mM HEPES pH 7.4, 480 mM KF, 0.01% Tween® 20 and 0.1% BSA bovine serum albumin) Reaction plates were stored at 4° C. overnight before reading the fluorescence ratio signal on a PerkinElmer EnVision™ fluorescence detector. Individual reaction wells were stopped at time points to obtain reaction rates. The test inhibitor compounds were assayed in duplicate, at half-log serial dilutions over a range of concentrations (e.g. starting at 50 μM or 5 μM as the high compound concentration). The percent Trk enzyme inhibition was calculated from the initial rates of the inhibited reactions relative to the uninhibited control. IC50 values were calculated by fitting the inhibition percent to the concentration of inhibitor [I] in the assay in equation 1 below, to solve for the IC50.
(§4) Inhibition %=100[I]/([I]+[IC50]) equation 1
(§5) The TrkB and TrkC in vitro assays were performed as described above, except that for these enzymes the assay ATP concentration targeted was 5 μM.

TrkC = target: T3, TrkC (Homo sapiens, UniProt Q16288); assay: TrkC kinase inhibition, HTRF assay; assay type: biochemical; details: LCK peptide substrate, assay ATP concentration targeted 5 μM
T3 construct: purchased Invitrogen PV3617
Method: as §1, §2, §3, §4, §5

T2 sequence (Q16620 32-822): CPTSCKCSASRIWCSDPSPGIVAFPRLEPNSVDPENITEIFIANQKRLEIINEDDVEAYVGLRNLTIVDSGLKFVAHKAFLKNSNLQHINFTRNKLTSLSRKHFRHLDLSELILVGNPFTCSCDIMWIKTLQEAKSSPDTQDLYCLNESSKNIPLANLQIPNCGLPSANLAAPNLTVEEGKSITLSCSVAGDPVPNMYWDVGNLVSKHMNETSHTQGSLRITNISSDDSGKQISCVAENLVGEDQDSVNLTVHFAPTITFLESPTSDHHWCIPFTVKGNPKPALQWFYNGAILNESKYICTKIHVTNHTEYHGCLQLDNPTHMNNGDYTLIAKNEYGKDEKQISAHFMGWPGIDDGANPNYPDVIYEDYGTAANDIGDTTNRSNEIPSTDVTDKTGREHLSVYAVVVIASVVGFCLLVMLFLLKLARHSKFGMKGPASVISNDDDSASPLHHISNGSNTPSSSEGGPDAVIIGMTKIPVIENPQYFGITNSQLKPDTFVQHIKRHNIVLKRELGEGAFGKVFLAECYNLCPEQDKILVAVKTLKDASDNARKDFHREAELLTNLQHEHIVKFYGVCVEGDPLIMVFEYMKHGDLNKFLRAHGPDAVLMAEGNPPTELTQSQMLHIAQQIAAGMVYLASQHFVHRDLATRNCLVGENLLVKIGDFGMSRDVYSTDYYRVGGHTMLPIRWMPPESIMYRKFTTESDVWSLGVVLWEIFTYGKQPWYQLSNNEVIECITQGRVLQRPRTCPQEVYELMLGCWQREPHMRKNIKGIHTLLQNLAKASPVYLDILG
T3 sequence (Q16288 32-839): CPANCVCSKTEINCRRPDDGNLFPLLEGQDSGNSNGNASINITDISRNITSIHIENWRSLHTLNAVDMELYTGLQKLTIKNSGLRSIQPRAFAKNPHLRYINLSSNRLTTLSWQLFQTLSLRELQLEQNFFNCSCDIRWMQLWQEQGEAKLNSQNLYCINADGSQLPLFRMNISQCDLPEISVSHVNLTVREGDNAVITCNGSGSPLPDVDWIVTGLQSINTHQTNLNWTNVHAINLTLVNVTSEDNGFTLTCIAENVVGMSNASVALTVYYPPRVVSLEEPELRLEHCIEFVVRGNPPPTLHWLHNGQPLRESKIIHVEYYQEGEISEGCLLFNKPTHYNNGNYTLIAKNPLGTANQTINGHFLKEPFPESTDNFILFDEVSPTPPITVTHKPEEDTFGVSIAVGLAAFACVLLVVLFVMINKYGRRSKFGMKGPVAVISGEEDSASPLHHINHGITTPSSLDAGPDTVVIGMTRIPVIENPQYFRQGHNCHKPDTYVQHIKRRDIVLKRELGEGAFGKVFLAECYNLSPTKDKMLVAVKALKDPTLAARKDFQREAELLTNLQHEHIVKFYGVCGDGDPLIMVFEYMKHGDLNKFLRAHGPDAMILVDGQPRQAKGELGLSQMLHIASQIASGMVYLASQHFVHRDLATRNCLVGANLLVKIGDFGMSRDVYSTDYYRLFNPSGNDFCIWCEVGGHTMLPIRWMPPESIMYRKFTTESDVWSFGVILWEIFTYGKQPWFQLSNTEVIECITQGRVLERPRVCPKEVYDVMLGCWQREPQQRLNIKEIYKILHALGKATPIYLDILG
T1 sequence (P04629 33-796): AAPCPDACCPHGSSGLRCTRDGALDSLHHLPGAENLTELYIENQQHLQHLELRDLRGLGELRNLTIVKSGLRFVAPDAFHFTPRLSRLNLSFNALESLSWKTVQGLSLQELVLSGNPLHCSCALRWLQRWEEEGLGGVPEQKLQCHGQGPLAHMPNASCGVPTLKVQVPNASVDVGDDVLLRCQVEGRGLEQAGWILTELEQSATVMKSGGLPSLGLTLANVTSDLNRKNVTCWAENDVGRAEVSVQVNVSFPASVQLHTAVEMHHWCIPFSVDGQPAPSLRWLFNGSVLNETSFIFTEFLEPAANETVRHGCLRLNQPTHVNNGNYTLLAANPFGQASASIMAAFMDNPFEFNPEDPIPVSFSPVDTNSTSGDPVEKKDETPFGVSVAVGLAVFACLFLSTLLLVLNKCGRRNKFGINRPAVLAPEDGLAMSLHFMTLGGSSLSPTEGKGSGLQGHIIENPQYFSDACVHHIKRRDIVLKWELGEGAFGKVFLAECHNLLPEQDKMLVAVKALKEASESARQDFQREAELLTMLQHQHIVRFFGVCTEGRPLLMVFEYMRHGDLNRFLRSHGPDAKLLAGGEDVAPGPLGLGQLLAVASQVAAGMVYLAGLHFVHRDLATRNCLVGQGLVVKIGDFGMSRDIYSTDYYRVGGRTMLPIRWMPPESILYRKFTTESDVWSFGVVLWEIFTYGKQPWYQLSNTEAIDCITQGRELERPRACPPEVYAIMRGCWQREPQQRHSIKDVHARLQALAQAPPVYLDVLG

| Compound | IC50 (TrkA) [nM] | % Effect ([1]; dose 30 mg/kg p.o.) [%***] | IC50 (TrkB) [nM] | IC50 (TrkC) [nM] | % Effect ([1]; dose 100 mg/kg p.o.) [%***] |
| --- | --- | --- | --- | --- | --- |
| CNC(=O)c1ccc(-c2cc(OC3CCOCC3)c3c(N)n[nH]c3c2)cc1N1CCN(c2ncc(F)cn2)CC1 [Example 113, 4-[3-amino-4-(tetrahydro-2H-pyran-4-yloxy)-1H-indazol-6-yl]-2-[4-(5-fluoropyrimidin-2-yl)piperazin-1-yl]-N-methylbenzamide] | 4.74 | 89 |  |  |  |
| CNC(=O)c1ccc(-c2cc(OC3CCOCC3)c3c(N)n[nH]c3c2)cc1N1CCN(C2CCCCC2)CC1 [Example 29, 4-[3-amino-4-(tetrahydro-2H-pyran-4-yloxy)-1H-indazol-6-yl]-2-(4-cyclohexylpiperazin-1-yl)-N-methylbenzamide] | 97.9 |  | 46 | 55.9 | 77 |
| CNC(=O)c1ccc(-c2cc(OC3CCOCC3)c3c(N)n[nH]c3c2)cc1N1CCN(CC(F)(F)F)CC1 [Example 108, 4-[3-amino-4-(tetrahydro-2H-pyran-4-yloxy)-1H-indazol-6-yl]-N-methyl-2-[4-(2,2,2-trifluoroethyl)piperazin-1-yl]benzamide] | 30.5 | 73 | 41.3 | 52.2 |  |
| CC(=O)Nc1ccc(-c2cc(OC3CCOCC3)c3c(C)n[nH]c3c2)cc1OCCOc1ccccc1 [Example 130, N-{4-[3-methyl-4-(tetrahydro-2H-pyran-4-yloxy)-1H-indazol-6-yl]-2-(2-phenoxyethoxy)phenyl}acetamide] | 13.7 |  | 1.5 | 1.5 |  |
| CNC(=O)c1ccc(-c2cc(OC(C)C(F)(F)F)c3c(N)n[nH]c3c2)cc1N1CCN(C2CCCCC2)CC1 (stereo not shown) [Example 35, 4-{3-amino-4-[(1,1,1-trifluoropropan-2-yl)oxy]-1H-indazol-6-yl}-2-(4-cyclohexylpiperazin-1-yl)-N-methylbenzamide] | 59.5 |  | 91.9 | 105 |  |
| CNC(=O)c1ccc(-c2cc(OC3CCOCC3)c3c(N)n[nH]c3c2)cc1N1CCN(CC2CCCC2)CC1 [Example 110, 4-[3-amino-4-(tetrahydro-2H-pyran-4-yloxy)-1H-indazol-6-yl]-2-[4-(cyclopentylmethyl)piperazin-1-yl]-N-methylbenzamide] | 2.73 |  | 1.63 | 2.58 |  |
| NC(=O)c1ccc(-c2cc(OC3CCCC3)c3c(N)n[nH]c3c2)cc1N1CCN(CCN2CCOCC2)CC1 [Example 70, 4-[3-amino-4-(cyclopentyloxy)-1H-indazol-6-yl]-2-{4-[2-(morpholin-4-yl)ethyl]piperazin-1-yl}benzamide] | 34.9 |  | 83.7 | 145 |  |
| CC(Oc1cc(-c2ccc(C(N)=O)c(N3CCN(c4cccnc4)CC3)c2)cc2[nH]nc(N)c12)C(F)(F)F (stereo not shown) [Example 91, 4-{3-amino-4-[(1,1,1-trifluoropropan-2-yl)oxy]-1H-indazol-6-yl}-2-[4-(pyridin-3-yl)piperazin-1-yl]benzamide] | 5.31 |  | 2.01 | 2.89 |  |
| NC(=O)c1ccc(-c2cc(OC3CCCC3)c3c(N)n[nH]c3c2)cc1N1CCN(c2cccnc2)CC1 [Example 69, 4-[3-amino-4-(cyclopentyloxy)-1H-indazol-6-yl]-2-[4-(pyridin-3-yl)piperazin-1-yl]benzamide] | 2.95 |  | 1.63 | 3.09 |  |
| NC(=O)c1ccc(-c2cc(OC3CCOCC3)c3c(N)n[nH]c3c2)cc1N1CCN(c2cccnc2)CC1 [Example 2, 4-[3-amino-4-(tetrahydro-2H-pyran-4-yloxy)-1H-indazol-6-yl]-2-[4-(pyridin-3-yl)piperazin-1-yl]benzamide] | 7.4 |  | 3.09 | 3.85 |  |
| NC(=O)c1ccc(-c2cc(OC3CCOCC3)c3c(N)n[nH]c3c2)cc1N1CCN(C2CC2)CC1 [Example 3, 4-[3-amino-4-(tetrahydro-2H-pyran-4-yloxy)-1H-indazol-6-yl]-2-(4-cyclopropylpiperazin-1-yl)benzamide] | 55.3 |  | 20.6 | 25.7 |  |
| CNC(=O)c1ccc(-c2cc(OC3CCOCC3)c3c(N)n[nH]c3c2)cc1N1CCN(c2ccccc2)CC1 [Example 30, 4-[3-amino-4-(tetrahydro-2H-pyran-4-yloxy)-1H-indazol-6-yl]-N-methyl-2-(4-phenylpiperazin-1-yl)benzamide] | 10.4 |  | 1.5 | 1.5 |  |
| CC(Oc1cc(-c2ccc(C(N)=O)c(N3CCN(c4ccccc4)CC3)c2)cc2[nH]nc(N)c12)C(F)(F)F (stereo not shown) [Example 92, 4-{3-amino-4-[(1,1,1-trifluoropropan-2-yl)oxy]-1H-indazol-6-yl}-2-(4-phenylpiperazin-1-yl)benzamide] | 3.35 |  | 1.27 | 1.72 |  |
| Nc1n[nH]c2cc(-c3ccc(C(=O)NC4CC4)c(N4CCN(c5ccccc5)CC4)c3)cc(OC3CCOCC3)c12 [Example 23, 4-[3-amino-4-(tetrahydro-2H-pyran-4-yloxy)-1H-indazol-6-yl]-N-cyclopropyl-2-(4-phenylpiperazin-1-yl)benzamide] | 15 |  | 8.04 | 8.53 |  |
| NC(=O)c1ccc(-c2cc(OC3CCCC3)c3c(N)n[nH]c3c2)cc1N1CCN(C2CCCCC2)CC1 [Example 74, 4-[3-amino-4-(cyclopentyloxy)-1H-indazol-6-yl]-2-(4-cyclohexylpiperazin-1-yl)benzamide] | 19 |  | 3.89 | 8.32 |  |
